Each structure is given as a SMILES string. Peptide text beside a SMILES is read from it.

Assay [1] relates to Murine fibrosarcoma cells (uv-2237-MM). Description: Cell adhesion assay for MM fibrosarcoma cell line (Example 6B). It is filed as cell-based. The following applies: FIG. 11. On the procedure: (§1) Adhesion was measured using 96 well microtiter plates adsorbed with three different amounts (0.1; 1.0; and 10.0 μg/per well) of peptides 9, 11-18, BSA and laminin. Cultures of cells which were 60-80% confluent were metabolically labeled for 24 hours with the addition of 3 mCi/ml of ^3 H-amino acid mixture. On the day of the assay, the cells were harvested by trypsinization, the trypsin was inhibited by the addition of serum, and the cells were washed free of this mixture and resuspended in DMEM buffered with HEPES at pH 7.2. The adhesion medium also contained 2 mg/ml BSA. The cells were adjusted to a concentration of 3-4×10^4 /ml and 100 μls of this cell suspension was added to the wells. The assay mixture was then incubated at 37° C for 120 minutes. At the end of the incubation, the wells were washed with warm PBS containing 10 mM Ca^++, and the adherent population was solubilized with 0.5N NaOH containing 1% sodium dodecyl sulfate. The solubilized cells were then quantitated using a liquid scintillation counter. Each determination was done in triplicate.
Murine fibrosarcoma cells (uv-2237-MM) were originally provided by Dr. I. J. Fidler of Anderson Hospital, University of Texas Health Sciences Center, Houston, Tex. Culturing, labeling and harvesting techniques were as described in part A. Cell adhesion assay was performed as described in Example 5.

The nature of assay [2]: Heparin binding to peptides coated on 96-well plastic plates (Example 2). The following applies: 1 mg/ml to 1 μg/ml, two hours at 37° C., FIG. 5. Here is the method: In order to test the ability of the synthesized peptides (9 and 11-18) to bind to 96-well plastic plates (in which experiments with cultured cell lines can be performed), we did an experiment similar to that described above in Example 1. Stock solutions of peptides 9 and 11-18, laminin and BSA at a maximum concentration of 1 mg/ml were prepared and serially diluted in PBS+NaN3 producing final concentration from 1 mg/ml to 1 μg/ml. Fifty μl from each concentration was coated on the 96-well plates and left to dry overnight at 28° C. Then, wells were treated for two hours with […] of 2 mg/ml BSA in 6 mM phosphate, 100 mM NaCl, 68 μM CaCl2, pH 6.8 (wash buffer) in order to minimize non-specific binding. Next 50 μls of ^3 H-heparin (10 μg/ml) was added (50,000 cpm/well) for two hours at 37° C. The wells were then washed three times with wash buffer containing 0.05% Triton X-100 and finally they were incubated for thirty minutes at 60 C with 200 μl of 0.5 N NaOH and 1% SDS. The amount of ^3 H-heparin bound at each peptide concentration was quantitated as described above in Example 1.

In another assay the target is intact, native laminin (Mus musculus, UniProt P02469+P19137). Put plainly: Inhibition of heparin binding to laminin by peptide fragments in solution (Example 3). The following applies: peptides in solution 1 mg/ml to 1 μg/ml, laminin coated on plastic at 60 μg/ml, FIG. 6. Here is the method:
Peptides 9, 11-14 and 16 in solution (and not absorbed to plastic), were screened for the ability to inhibit the binding of heparin to intact, native laminin coated on plastic. This experimental approach avoids problems due to differential coating of peptides in heparin binding assays. Laminin at 60 μg/ml in PBS was coated on 96-well plates, using 50 μls per well and dried overnight at 28+ C. The wells were then treated for two hours with 2 mg/ml BSA in wash buffer (described above in Example 2). Peptides at various dilutions ranging from 1 mg/ml to 1 μg/ml in PBS and CHAPS (Cholamido-propyl-dimethyl-Axmmonio-PropaneSulfonate)(a detergent used to avoid non-specific sticking) were co-incubated with a standard amount of ^3 H-heparin (25,000 cpm per well 5 μg/ml final concentration) for two hours at 37° C. and the mixture was then transferred to the laminin coated plate (50 μl) and allowed to incubate for another two hours at 37° C. The wells were then washed and radioactivity was counted as described above.

Assay [3] relates to PC12 rat pheochromocytoma cells. Description: Cell adhesion assay for PC12 pheochromocytoma cell line (Example 6D). It is filed as cell-based. The following applies: FIG. 13. On the procedure:
as §1
PC12 rat pheochromocytoma cells were provided by Dr. P. Letourneau of the Department of Anatomy, University of Minnesota, Minneapolis, Minn. Culturing techniques were as described in part A. Labelling and harvesting techniques were as described in Example 5. Cell adhesion assay was performed as described in Example 5.

Assay [4] is described as follows: Heparin binding assay on nitrocellulose sheets (Example 1). The following applies: peptide on nitrocellulose, 1 mg/ml to 1 μg/ml, 2 hours, FIG. 4. Here is the method: The assay for heparin binding utilizes nitrocellulose sheets as subtrata to bind peptides or proteins to be tested for heparin binding activity. Peptides 9 and 11-18 were solubilized in 50 mM NH3 HCO3 to form solutions of 1 mg/ml. Each solution was serially diluted 1:1 in the same buffer producing concentrations from 1 mg/ml to 1 μg/ml. Nitrocellulose sheets which had been presoaked in 50 mM NH3 HCO3 were placed in a 96 well dot blot apparatus (Bethesda Research Laboratories, Bethesda, MD, and 100 μl of various concentrations of each peptide were aspirated through the wells. Each well was then washed three times with binding buffer (10 mM Tris-HCl, pH 8.0, 0.15 M NaCl), and the filters were removed and allowed to air dry overnight. The filters were then equilibriated for 5 minutes at room temperature in binding buffer which contained 10 mM CaCl2. ^3 H-heparin was then diluted to a concentration of 50,000 cpm/ml in binding buffer (with Ca^++), and nitrocellulose sheets were incubated in the presence of this mixture for 2 hours. The filters were then washed four times with binding buffer, and air dried. The individual spots of samples were cut out of the nitrocellulose, immersed in scintillation fluid and bound heparin was quantitated with a Beckman LS-3801 liquid scintillation counter. […]

A further assay concerns Rat C6 glioma cell line. Put plainly: Cell adhesion assay for C6 cell line (Example 6C). It is filed as cell-based. The following applies: FIG. 12. Here is the method:
as §1
Rat C6 glioma cell line was purchased from the American Type Culture Collection (identification number CCL 107). Culturing techniques were as described in part A. Labelling and harvesting techniques were as described in Example 5. Cell adhesion assay was performed as described in Example 5.

For `CSCC[C@H](NC(=O)CNC(=O)[C@H](CCCCN)NC(=O)[C@H](CCC(=O)O)NC(=O)[C@H](Cc1ccccc1)NC(=O)[C@H](CS)NC(=O)[C@@H](NC(=O)[C@@H]1CCCN1C(=O)[C@H](CCCNC(=N)N)NC(=O)[C@@H]1CCCN1C(=O)[C@H](CC(C)C)NC(=O)[C@@H](NC(=O)[C@@H](NC(=O)[C@H](Cc1ccc(O)cc1)NC(=O)[C@@H](N)CCCNC(=N)N)C(C)C)C(C)C)C(C)C)C(=O)N[C@@H](CC(N)=O)C(=O)N[C@@H](Cc1ccc(O)cc1)C(=O)N[C@H](C(=O)N[C@H](C(=O)N[C@@H](CCCNC(=N)N)C(=O)O)C(C)C)[C@@H](C)O` [Peptide F9] (H-RYVVLPRPVCFEKGMNYTVR-OH), the cell adhesion entry (in assay [1]; in assay [3]; with Rat C6 glioma cell line) was “potent promoters of cell adhesion” throughout. The “binding of ^3 H-heparin” value in assay [2] is “bind heparin very well”; in assay [4], “strongly bound ^3 H-heparin”. Besides, the “inhibition of binding of heparin to laminin” value at intact, native laminin was “interact most strongly with heparin”.

As for `CC[C@H](C)[C@H](NC(=O)[C@H](CCCCN)NC(=O)[C@H](CC(C)C)NC(=O)[C@H](C)NC(=O)[C@H](CCCCN)NC(=O)[C@H](C)NC(=O)[C@H](CCCCN)NC(=O)[C@H](CCC(=O)O)NC(=O)[C@H](CC(C)C)NC(=O)[C@H](Cc1ccccc1)NC(=O)[C@H](CCCCN)NC(=O)[C@H](Cc1c[nH]cn1)NC(=O)[C@@H](NC(=O)[C@H](CCCNC(=N)N)NC(=O)[C@H](CC(N)=O)NC(=O)[C@@H](NC(=O)[C@H](CC(C)C)NC(=O)[C@@H](N)CCC(=O)O)[C@@H](C)O)[C@@H](C)O)C(=O)O` [Peptide F13, ELTNRTHKFLEKAKALKI] (H-ELTNRTHKFLEKAKALKI-OH), the cell adhesion result (in assay [1]; in assay [3]; in the assay with Rat C6 glioma cell line) was “potent promoters of cell adhesion” each time. The “binding of ^3 H-heparin” value in assay [2] is listed as “binds heparin but less extensively”; in assay [4], “strongly bound ^3 H-heparin”. Moreover, the “inhibition of binding of heparin to laminin” value on intact, native laminin is “interact most strongly with heparin”.

Values taken from patent US4870160A, “Polypeptides with laminin activity” (Regents of the University of Minnesota, priority 1987, dated 1989).
